According to ChEMBL document CHEMBL1201862, “PubChem BioAssay data set” (2004):
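48-hour exposure; five concentrations; linearly interpolated endpoints. GI50 = concentration required for 50% inhibition of growth.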 The source made the active and inactive calls. Rule as the data show it: active = GI50 up to about 1.1 µM and inactive = higher. Residues, ends and D or L forms follow the SMILES beside them. *: point of attachment. Boc = CC(C)(C)OC(=O)*; OBn = c1ccc(CO*)cc1

Key:
Test in all cases: NCI-60 cell line screen, 48 h
[1] = system: 786-0
[2] = system: A549
[3] = system: CCRF-CEM
[4] = system: HCC 2998
[5] = system: HCT-116
[6] = system: HOP-62
[7] = system: Hs-578T
[8] = system: IGROV-1
[9] = system: MDA-MB-231
[10] = system: MDA-MB-435
[11] = system: NCI/ADR-RES
[12] = system: OVCAR-4
[13] = system: PC-3
[14] = system: SF-268
[15] = system: SN12C
[16] = system: SNB-19
[17] = system: UO-31
[18] = system: Malme-3M
[19] = system: NCI-H460
[20] = system: NCI-H522

Measured: GI50

Cc1ccc2nc(N/N=C/c3sccc3C)cc(C)c2c1
inactive: [1] 29.2 µM | [2] 83.9 µM | [3] > 100 µM | [4] > 100 µM | [5] 42.6 µM | [6] 29.3 µM | [7] 83.2 µM | [8] 37.2 µM | [9] 14.7 µM | [10] > 100 µM | [11] > 100 µM | [12] 34.9 µM | [13] 35 µM | [14] > 100 µM | [15] > 100 µM | [16] 48.2 µM | [17] > 100 µM

CC(=O)OCC1OC(n2c(C)c(/N=N/c3ccc(C)cc3)c(C)c(C#N)c2=S)C(OC(C)=O)C(OC(C)=O)C1OC(C)=O (configuration not stated)
inactive: [1] 27.4 µM | [2] > 100 µM | [3] > 100 µM | [4] > 100 µM | [5] > 100 µM | [6] > 100 µM | [7] 23.5 µM | [8] > 100 µM | [9] 48.6 µM | [10] > 100 µM | [18] 79.3 µM | [19] > 100 µM | [11] > 100 µM | [12] 41.4 µM | [13] > 100 µM | [14] > 100 µM | [15] > 100 µM | [16] > 100 µM | [17] > 100 µM

Cn1c2ccccc2c(=O)c2cccc(C(=O)NCC(=O)O)c21
inactive: [1] > 100 µM | [2] > 100 µM | [4] > 100 µM | [5] > 100 µM | [6] > 100 µM | [7] > 100 µM | [8] 85.1 µM | [9] > 100 µM | [10] > 100 µM | [18] > 100 µM | [19] > 100 µM | [11] 60.3 µM | [12] > 100 µM | [13] > 100 µM | [14] > 100 µM | [15] > 100 µM | [16] > 100 µM | [17] > 100 µM

COc1ccc(Nc2nnc(-c3nsc4ccccc34)s2)cc1
inactive: [1] 3.41 µM | [2] 27.4 µM | [3] 34.7 µM | [4] > 56.4 µM | [5] 8.55 µM | [6] 8.26 µM | [7] 21.9 µM | [8] > 100 µM | [9] 6.5 µM | [10] > 100 µM | [19] 15 µM | [11] 9.71 µM | [12] 2.47 µM | [13] > 100 µM | [14] 33.5 µM | [15] > 61.4 µM | [16] > 53.1 µM | [17] 10.2 µM

COc1cc(C2SC(=N)Nc3c2c(C)nn3C(=O)Cc2ccccc2)cc(OC)c1OC (configuration not stated)
inactive: [1] > 100 µM | [2] > 100 µM | [3] > 100 µM | [4] > 100 µM | [5] > 100 µM | [6] > 100 µM | [7] > 100 µM | [8] > 100 µM | [9] > 100 µM | [10] > 100 µM | [19] > 100 µM | [20] > 100 µM | [13] > 100 µM | [14] > 100 µM | [15] > 100 µM | [16] > 100 µM | [17] > 100 µM

CC(C)N(C(=O)C12C3(C(=O)C(C)(C)C)C4C5(C#N)C3C1(C(=O)C(C)(C)C)C5C42C(=O)C(C)(C)C)C(C)C (configuration not stated)
inactive: [1] > 100 µM | [2] > 100 µM | [3] > 100 µM | [4] > 100 µM | [5] > 100 µM | [6] > 100 µM | [7] > 100 µM | [8] > 100 µM | [9] > 100 µM | [10] > 100 µM | [19] > 100 µM | [20] > 100 µM | [11] > 100 µM | [12] > 100 µM | [13] > 100 µM | [14] > 100 µM | [15] > 100 µM | [16] > 100 µM | [17] > 100 µM

CSCC[C@H](NC(=O)[C@H](CC(C)C)NC(=O)[C@@H](Cc1ccccc1)NC(=O)CNC(=O)[C@@H](NC(=O)[C@H](C)NC(=O)[C@H](Cc1c[nH]c2ccccc12)NC(=O)[C@H](CCC(N)=O)NC(=O)[C@H](N)CC(N)=O)C(C)C)C(N)=O
inactive: [1] > 12.5 µM | [2] > 12.5 µM | [3] > 12.5 µM | [4] > 12.5 µM | [5] > 12.5 µM | [6] > 12.5 µM | [7] > 12.5 µM | [8] > 12.5 µM | [9] > 12.5 µM | [10] > 12.5 µM | [18] > 12.5 µM | [19] > 12.5 µM | [11] > 12.5 µM | [12] > 12.5 µM | [13] > 12.5 µM | [14] > 12.5 µM | [15] > 12.5 µM | [16] > 12.5 µM

CC(NC(=O)CNC(=O)OC(C)(C)C)C(=O)NC(Cc1ccccc1)C(=O)OCc1ccccc1 (stereo not drawn) (Boc-Gly-Ala-Phe-OBn; configuration not given here)
inactive: [1] 27.9 µM | [2] > 100 µM | [3] 40.9 µM | [5] 14.9 µM | [7] 11.2 µM | [8] > 100 µM | [9] > 100 µM | [10] > 100 µM | [18] 63.4 µM | [20] 68.4 µM | [11] > 100 µM | [12] > 100 µM | [13] > 100 µM | [14] 86.9 µM | [15] > 100 µM | [16] > 100 µM | [17] > 100 µM

CC1=NN(c2cccc(Cl)c2)C2(SCC(=O)N2c2nc3ccccc3s2)/C1=C\c1ccc(N(C)C)cc1 (configuration not stated)
inactive: [1] 43.8 µM | [3] 66.1 µM | [4] 88.7 µM | [5] > 100 µM | [6] 19.4 µM | [7] 21 µM | [8] 54.7 µM | [9] 40.7 µM | [10] > 100 µM | [19] 20.9 µM | [20] 65.8 µM | [11] > 100 µM | [12] 93.5 µM | [13] > 100 µM | [14] 38.7 µM | [17] > 100 µM

O=S(=O)(c1ccc(Br)cc1)N1CCN(S(=O)(=O)c2ccc(Br)cc2)CC1
inactive: [1] > 100 µM | [2] > 100 µM | [3] > 100 µM | [5] > 100 µM | [6] > 100 µM | [7] > 100 µM | [8] > 100 µM | [9] > 100 µM | [10] > 100 µM | [18] > 100 µM | [20] > 100 µM | [11] > 100 µM | [12] > 100 µM | [13] > 100 µM | [14] > 100 µM | [15] > 100 µM | [16] > 100 µM | [17] > 100 µM
